Patent US20190297888A1, “FUNGICIDAL COMPOUNDS AND MIXTURES FOR FUNGAL CONTROL IN CEREALS” (Dow AgroSciences LLC, priority 2016, published 2019)

Legend:
Format in all cases: in vivo
[1] = system: Rhyncosporium secalis (RHYNSE); test: Field assessment of Compound I and fluxapyroxad on leaf scald of barley (AUDPC % control); settings: AUDPC-based, one field trial
Description: (§1) Commercial standards used in the studies were Proline 275 (275 g ai/L Prothioconazole), applied at 150 g ai/ha, and SiltraXpro (200 g ai/L prothioconazole+60 g ai/[…] bixafen), applied at 195 g ai/ha.
Fungicidal treatments containing the compound of Formula I and fluxapyroxad, either individually or as a two-way mixture, were assessed against scald of barley (RHYNSE) in one field trial. In the trial, fungicidal treatments were applied at B37-39 growth stages of winter barley (HORVW, Maris Otter variety) under natural infection of barley scald (protectant test, approximately 1% infection on leaf 4 at application). All treatments were part of an experimental trial designed as a randomized complete block with four replications.
Disease severity (percentage of visual diseased foliage on whole plot or leaves) in the field trial was recorded following EPPO PP1/26 guideline prescriptions. Area under the disease progress curve (AUDPC) was calculated for each plot in the trial using the sets of recorded severity data. Relative AUDPC (% control based on AUDPC) was calculated as percent of the nontreated control. […] Statistical analysis was done according to ANOVA and Tukey's test (p=0.10).

[2] = system: Zymoseptoria tritici (SEPTTR); test: Field assessment of Compound I and fluxapyroxad on leaf blotch of wheat (AUDPC % control); settings: AUDPC-based, 2 field trials
Description: (§2) Treatments consisting of the compound of Formula I and fungicide compound fluxapyroxad against fungal diseases of wheat were applied either using individually or as a two-way mixture of fluxapyroxad with the compound of Formula I. The compound of Formula I was applied with Agnique BP-420 (50% w/w at 0.3% v/v) at 50, 75 and 100 g ai/ha and Imtrex (Fluxapyroxad 62.5 g/L) was applied at 50, 75 and 100 g ai/ha. Commercial standards used in the studies were Adexar (epoxiconazole+fluxapyroxad—125 g/L), applied at 1.2 and 1.6 L pr/ha, and Elatus Era (benzovindiflupyr+prothioconazole—225 g/L), applied at 1.0 L pr/ha.
Fungicidal treatments containing the compound of Formula I and fluxapyroxad, either individually or as a two-way mixture, were assessed against leaf spot of wheat (SEPTTR) in two separate field trials. In the first trial, fungicidal treatments were applied at B32 (curative, 12% infection at application on L4) growth stage of winter wheat (TRZAW, TOBAK variety). The treatments were part of an experimental trial designed as a randomized complete block with four replications and a plot of approximately 2×2 m. Treatments were applied at water volume of 200 L/ha, using a backpack plot sprayer (BCYAIR, FLATFANA nozzle) and pressurized at 220 kPa.
In the second trial, fungicidal treatments were applied at B33-39 (curative, 50% infection at application on L5) growth stages of winter wheat (TRZAW, Consort variety). The treatments were part of an experimental trial designed as a randomized complete block with four replications and a plot of approximately 1.5×14 m. Treatments were applied at water volume of 200 L/ha, using a backpack plot sprayer (BKPCKAIR, Flat fan nozzle) and pressurized at 210 kPa.
(§3) Disease severity (percentage of visual diseased foliage on whole plot or leaves) in both field trials was recorded following EPPO PP1/26 guideline prescriptions. Area under the disease progress curve (AUDPC) was calculated for each plot in both trials using the sets of recorded severity data. Relative AUDPC (% control based on AUDPC) was calculated as percent of the nontreated control. Final results for the control of leaf spot of wheat by the compound of Formula I, fluxapyroxad and mixtures are reported as an average of the relative AUDPC calculated over both field trials. Statistical analysis was done according to ANOVA and Tukey's test (p=0.10).

Puccinia hordei (PUCCHD) = test: Field assessment of Compound I and fluxapyroxad on rust of barley (AUDPC % control); settings: AUDPC-based, 2 field trials
Description: as §1
Fungicidal treatments containing the compound of Formula I and fluxapyroxad, either individually or as a two-way mixture, were assessed against rust of barley (PUCCHD) in two separate field trials. In both trials, fungicidal treatments were applied at B37-39 growth stages of winter barley (Lomeritt variety) under natural infection of barley rust. All treatments were part of an experimental trial designed as a randomized complete block with four replications.
Disease severity (percentage of visual diseased foliage on whole plot or leaves) in […] field trials was recorded following EPPO PP1/26 guideline prescriptions. Area under the disease progress curve (AUDPC) was calculated for each plot in both trials using the sets of recorded severity data. Relative AUDPC (% control based on AUDPC) was calculated as percent of the nontreated control. […] Statistical analysis was done according to ANOVA and Tukey's test (p=0.10).

[3] = system: Puccinia striiformis (PUCCST); test: Field assessment of Compound I and fluxapyroxad on yellow rust of wheat (AUDPC % control); settings: AUDPC-based, 2 field trials
Description: as §2
Fungicidal treatments containing the compound of Formula I and fluxapyroxad, either individually or as a two-way mixture, were assessed against yellow rust of wheat (PUCCST) in two separate field trials. In the first trial, fungicidal treatments were applied once at B37 (early curative, 6.5% infection at application on L3) growth stage of winter wheat (TRZAW, Fairplay variety). The treatments were part of an experimental trial designed as a randomized complete block with four replications and a plot of approximately 2×6 m. Treatments were applied at water volume of 200 L/ha, using a backpack plot sprayer (BKPCKAIR, FLATFANA nozzle) and pressurized at 300 kPa.
In the second trial, fungicidal treatments containing the compound of Formula I and fluxapyroxad, either individually or as a two-way mixture, were applied once at B33-37 (early curative, 0.5% infection on L2 at application) growth stages of wheat (TRZAW, SOLSTICE variety). The treatment was part of an experimental trial designed as a randomized complete block with four replications and a plot of approximately 1.5×14 m. Treatments were applied at water volume of 200 L/ha, using a backpack precision plot sprayer (BKCKAIR, FLAT FAN nozzle) and pressurized at 210 kPa.
as §3, with “yellow rust” for “leaf spot”

| Compound | RHYNSE % Control ([1]; rate 75 g ai/ha) | RHYNSE % Control ([1]; rate 100 g ai/ha) | RHYNSE % Control ([1]; rate 150 g ai/ha) | SEPTTR % Control ([2]; rate 50 g ai/ha) | SEPTTR % Control ([2]; rate 75 g ai/ha) | SEPTTR % Control ([2]; rate 100 g ai/ha) | PUCCHD % Control (Puccinia hordei (PUCCHD); rate 75 g ai/ha) | PUCCHD % Control (Puccinia hordei (PUCCHD); rate 100 g ai/ha) | PUCCHD % Control (Puccinia hordei (PUCCHD); rate 150 g ai/ha) | PUCCST % Control ([3]; rate 50 g ai/ha) | PUCCST % Control ([3]; rate 75 g ai/ha) | PUCCST % Control ([3]; rate 100 g ai/ha) | RHYNSE % Control ([1]; rate 45 g ai/ha) | RHYNSE % Control ([1]; rate 62.5 g ai/ha) | PUCCHD % Control (Puccinia hordei (PUCCHD); rate 45 g ai/ha) | PUCCHD % Control (Puccinia hordei (PUCCHD); rate 62.5 g ai/ha) |
| --- | --- | --- | --- | --- | --- | --- | --- | --- | --- | --- | --- | --- | --- | --- | --- | --- |
| N#Cc1ccc(Oc2ccc(C(F)(F)C(O)(Cn3ncnc3S)c3ccc(F)cc3F)nc2)cc1 (stereo not drawn) [Compound I, 4-((6-(2-(2,4-difluorophenyl)-1,1-difluoro-2-hydroxy-3-(5-mercapto-1H-1,2,4-triazol-1-yl)propyl)pyridin-3-yl)oxy)benzonitrile] | 67.2% | 61.3% | 81.1% | 43.9% | 50.7% | 56.6% | 71.0% | 75.3% | 88.8% | 80.0% | 93.3% | 98.0% |  |  |  |  |
| Cn1cc(C(=O)Nc2ccccc2-c2cc(F)c(F)c(F)c2)c(C(F)F)n1 [Fluxapyroxad, 3-(difluoromethyl)-1-methyl-N-(3′,4′,5′-trifluorobiphenyl-2-yl)pyrazole-4-carboxamide] |  | 95.7% |  | 47.4% | 60.9% | 66.4% |  | 68.7% |  | 74.1% | 69.0% | 79.4% | 78.7% | 77.2% | 49.0% | 54.5% |
